Key:
Assay type in all cases: ADME; call rule not given here
[1] = target: T1, Albumin (Bos taurus, UniProt P02769); experiment: Binding affinity to bovine serum albumin by fluorescence quenching assay; conditions: cattle, isolated protein
[2] = target: T1, Albumin; experiment: Binding affinity to bovine serum albumin turn (1680 to 1660 cm'-1) at 0.1 mM after 2 hrs by FTIR spectroscopic analysis; conditions: cattle, isolated protein, 100 µM
[3] = target: T1, Albumin; experiment: Binding affinity to bovine serum albumin beta-sheet at 0.5 mM by circular dichroism analysis; conditions: cattle, isolated protein, 500 µM
[4] = target: T1, Albumin; experiment: Binding affinity to bovine serum albumin alpha-helix (1660 to 1650 cm'-1) at 0.1 mM after 2 hrs by FTIR spectroscopic analysis; conditions: cattle, isolated protein, 100 µM
[5] = target: T1, Albumin; experiment: Binding affinity to bovine serum albumin random coil at 0.5 mM by circular dichroism analysis; conditions: cattle, isolated protein, 500 µM
[6] = target: T1, Albumin; experiment: Binding affinity to bovine serum albumin turn at 0.5 mM by circular dichroism analysis; conditions: cattle, isolated protein, 500 µM
[7] = target: T1, Albumin; experiment: Binding affinity to bovine serum albumin beta-sheet (1640 to 1610 cm'-1) at 0.1 mM after 2 hrs by FTIR spectroscopic analysis; conditions: cattle, isolated protein, 100 µM
[8] = target: T1, Albumin; experiment: Binding affinity to bovine serum albumin by fluorescence spectroscopy analysis; conditions: cattle, isolated protein
[9] = target: T1, Albumin; experiment: Binding affinity to bovine serum albumin alpha-helix at 0.5 mM by circular dichroism analysis; conditions: cattle, isolated protein, 500 µM
[10] = target: T1, Albumin; experiment: Binding affinity to bovine serum albumin beta-antiparallel (1692 to 1680 cm'-1) at 0.1 mM after 2 hrs by FTIR spectroscopic analysis; conditions: cattle, isolated protein, 100 µM
[11] = target: T1, Albumin; experiment: Binding affinity to bovine serum albumin at 0.125 mM after 2 hrs by FTIR spectroscopic analysis; conditions: cattle, isolated protein, 125 µM
[12] = target: T1, Albumin; experiment: Binding affinity to bovine serum albumin random coil (1648 to 1641 cm'-1) at 0.1 mM after 2 hrs by FTIR spectroscopic analysis; conditions: cattle, isolated protein, 100 µM
[13] = target: T1, Albumin; experiment: Binding affinity to bovine serum albumin turn (1680 to 1660 cm'-1) at 0.5 mM after 2 hrs by FTIR spectroscopic analysis; conditions: cattle, isolated protein, 500 µM
[14] = target: T1, Albumin; experiment: Binding affinity to bovine serum albumin alpha-helix (1660 to 1650 cm'-1) at 0.5 mM after 2 hrs by FTIR spectroscopic analysis; conditions: cattle, isolated protein, 500 µM
[15] = target: T1, Albumin; experiment: Binding affinity to bovine serum albumin random coil (1648 to 1641 cm'-1) at 0.5 mM after 2 hrs by FTIR spectroscopic analysis; conditions: cattle, isolated protein, 500 µM
[16] = target: T1, Albumin; experiment: Binding affinity to bovine serum albumin beta-antiparallel (1692 to 1680 cm'-1) at 0.5 mM after 2 hrs by FTIR spectroscopic analysis; conditions: cattle, isolated protein, 500 µM
[17] = target: T1, Albumin; experiment: Binding affinity to bovine serum albumin beta-sheet (1640 to 1610 cm'-1) at 0.5 mM after 2 hrs by FTIR spectroscopic analysis; conditions: cattle, isolated protein, 500 µM

T1 sequence (P02769 whole entry): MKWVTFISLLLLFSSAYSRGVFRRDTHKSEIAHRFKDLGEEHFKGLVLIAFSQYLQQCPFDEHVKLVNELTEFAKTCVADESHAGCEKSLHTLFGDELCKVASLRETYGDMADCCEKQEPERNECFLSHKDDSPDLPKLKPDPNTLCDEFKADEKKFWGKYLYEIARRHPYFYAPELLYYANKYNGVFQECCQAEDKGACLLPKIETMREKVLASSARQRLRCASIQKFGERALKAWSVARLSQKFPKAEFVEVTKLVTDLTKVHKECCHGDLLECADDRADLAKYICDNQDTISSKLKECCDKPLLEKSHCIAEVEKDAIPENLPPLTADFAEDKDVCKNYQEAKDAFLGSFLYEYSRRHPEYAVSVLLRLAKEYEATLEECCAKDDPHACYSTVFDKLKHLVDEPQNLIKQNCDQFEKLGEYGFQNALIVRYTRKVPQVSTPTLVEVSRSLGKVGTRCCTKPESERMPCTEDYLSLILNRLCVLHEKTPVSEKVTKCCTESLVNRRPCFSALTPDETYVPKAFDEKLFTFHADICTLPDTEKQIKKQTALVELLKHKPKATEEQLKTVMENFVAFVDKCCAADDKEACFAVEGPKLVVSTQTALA

| Kq [1] | Activity [2] | Activity [3] | Activity [4] | Activity [5] | Activity [6] | Activity [7] | K [8] | Activity [9] | Activity [10] | Activity [11] | Activity [12] | Activity [13] | Activity [14] | Activity [15] | Activity [16] | Activity [17] | SMILES |
| --- | --- | --- | --- | --- | --- | --- | --- | --- | --- | --- | --- | --- | --- | --- | --- | --- | --- |
| 2.5 ×10¹³ /M/sec | 27% | 18% | 26% | 20% | 18% | 15% | 2.3 ×10⁶ /M | 44% | 7% | Active | 25% | – | – | – | – | – | CC1=C(/C=C/C(C)=C/C=C/C(C)=C/C(=O)O)C(C)(C)CCC1 [TRETINOIN] |
| 4.5 ×10¹³ /M/sec | – | 16% | – | 18% | 14% | – | 5.3 ×10⁶ /M | 52% | – | Active | – | 15% | 36% | 20% | 10% | 19% | CC1=C(/C=C/C(C)=C/C=C/C(C)=C/CO)C(C)(C)CCC1 [RETINOL] |
